According to ChEMBL document CHEMBL5108053 (J Med Chem, 2022):

Columns and labels:
[1] = Lipophilicity, logD of the compound in Octanol/potassium phosphate buffer at pH 7.4 after 1 hr by shake-flask based LC-MS/MS analysis; assay type: physicochemical; conditions: octanol/water, pH 7.4, 1 h
[2] = Stability in human hepatocytes assessed as intrinsic clearance at 2 uM measured per 10^6 cells incubated at 15 to 120 mins by LC-MS/MS analysis; assay type: ADME, cell-based, Hepatocyte; conditions: time 15-120 min
[3] = Stability in mouse hepatocytes assessed as intrinsic clearance at 2 uM measured per 10^6 cells incubated at 15 to 120 mins by LC-MS/MS analysis; assay type: ADME, cell-based, Hepatocyte; conditions: time 15-120 min
[4] = Oral bioavailability in C57BL/6 mouse at 1 mg/kg, iv or 10 mg/kg by HPLC analysis; assay type: ADME, organism-based; conditions: in vivo
[5] = Volume of distribution in C57BL/6 mouse at 1 mg/kg, iv or 10 mg/kg, po by HPLC analysis; assay type: ADME, organism-based; conditions: in vivo

logD [1]	CLH [2] [µL/min]	CLH [3] [µL/min]	bioavailability [4] [%]	Vd [5] [L/kg]	Structure (SMILES)
2.4					C[C@H]1O[C@@H](S[C@@H]2O[C@H](CO)[C@H](O)[C@H](n3cc(-c4cccc(F)c4)nn3)[C@H]2O)[C@H](O)[C@@H](n2cc(-c3cccc(F)c3)nn2)[C@H]1O
4.6	0.7	0.8	75	0.4	OC[C@H]1O[C@H](Sc2ccc(Cl)c(Cl)c2)[C@H](O)[C@@H](n2cc(-c3cc(F)c(F)c(F)c3)nn2)[C@H]1O
2.28					CC(=O)Nc1ccc(S[C@H]2O[C@H](CO)[C@H](O)[C@H](n3cc(-c4cc(F)c(F)c(F)c4)nn3)[C@H]2O)cc1
3.4					CCCCSC[C@H]1O[C@@H](S[C@@H]2O[C@H](CO)[C@H](O)[C@H](n3cc(-c4cccc(F)c4)nn3)[C@H]2O)[C@H](O)[C@@H](n2cc(-c3cccc(F)c3)nn2)[C@H]1O
3.7	0.8	1.1	95	0.9	N#Cc1ccc(S[C@H]2O[C@H](CO)[C@H](O)[C@H](n3cc(-c4cc(F)c(F)c(F)c4)nn3)[C@H]2O)cc1Cl
2.1					OC[C@H]1O[C@@H](S[C@@H]2O[C@H](CO)[C@H](O)[C@H](n3cc(-c4cccc(F)c4)nn3)[C@H]2O)[C@H](O)[C@@H](n2cc(-c3cccc(F)c3)nn2)[C@H]1O [OLITIGALTIN]
3	0.15		68	1.1	OC[C@H]1O[C@H](Sc2cncc(Br)c2)[C@H](O)[C@@H](n2cc(-c3cc(F)c(F)c(F)c3)nn2)[C@H]1O [SELVIGALTIN]
